Measured values published in ChEMBL document CHEMBL5143660, “Investigation on the chemical space of the substituted triazole thio-benzoxazepinone RIPK1 inhibitors” (Eur J Med Chem, 2022).
The source made the active and inactive calls. The calls are words filed in the database; no cut-off is given here.

How the values were obtained:
[1] = Cytotoxicity against human HT-29 cells assessed as reduction in cell viability; assay type: toxicity, cell-based
HT-29 [2] = experiment: Anti-necroptic activity in human HT-29 cells assessed as inhibition of TSZ induced necroptosis measured after 16 to 24 hrs by celltiter-glo luminescent cell viability assay; assay type: functional, cell-based
[3] = molecular target: T1, Receptor-interacting serine/threonine-protein kinase 1 (Homo sapiens, UniProt Q13546); experiment: Binding affinity to wild-type human partial length RIPK1 (M1 to K305 residues) expressed in bacterial expression system incubated for 1 hr under shaking condition by Kinomescan method
T1 sequence (Q13546 whole entry): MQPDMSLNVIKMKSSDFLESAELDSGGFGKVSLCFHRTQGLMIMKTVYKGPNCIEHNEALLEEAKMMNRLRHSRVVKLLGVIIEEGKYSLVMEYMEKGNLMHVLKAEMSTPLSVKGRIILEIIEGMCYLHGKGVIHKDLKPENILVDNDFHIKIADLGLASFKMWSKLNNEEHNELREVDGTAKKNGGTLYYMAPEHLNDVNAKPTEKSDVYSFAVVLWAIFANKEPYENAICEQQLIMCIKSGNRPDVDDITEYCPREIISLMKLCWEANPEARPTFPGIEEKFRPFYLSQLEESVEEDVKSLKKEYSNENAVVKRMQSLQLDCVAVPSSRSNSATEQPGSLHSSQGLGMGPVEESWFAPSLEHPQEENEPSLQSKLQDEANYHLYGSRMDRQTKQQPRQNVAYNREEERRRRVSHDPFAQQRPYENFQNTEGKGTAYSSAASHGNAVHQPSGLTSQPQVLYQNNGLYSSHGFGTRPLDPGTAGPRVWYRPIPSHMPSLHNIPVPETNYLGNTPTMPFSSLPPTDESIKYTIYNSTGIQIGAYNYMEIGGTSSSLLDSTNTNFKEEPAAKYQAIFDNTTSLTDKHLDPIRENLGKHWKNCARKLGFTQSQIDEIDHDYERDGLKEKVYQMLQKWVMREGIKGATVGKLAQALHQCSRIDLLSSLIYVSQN

[4] = molecular target: T2, Receptor-interacting serine/threonine-protein kinase 1 (Homo sapiens) (UniProt Q13546); experiment: Inhibition of RIPK1 phosphorylation in TSZ-induced human HT-29 cells at 2 to 4 nM pretreated with compound followed by TSZ stimulation and measured after 6 hrs by immunoblotting analysis; assay type: cell-based; settings: dose 2-4 nM
T2 sequence (whole entry): T1 sequence (Q13546 whole entry)

[5] = molecular target: T2, Receptor-interacting serine/threonine-protein kinase 1 (Homo sapiens); experiment: Inhibition of RIPK1 phosphorylation in TSZ-induced human HT-29 cells pretreated with compound followed by TSZ stimulation and measured after 6 hrs by immunoblotting analysis; assay type: cell-based; settings: dose 0.5-20 nM, DDE = dose-dependent effect
Mus musculus [6] = experiment: Anti-necroptic activity against mTNFalpha induced C57BL/6J mouse systemic inflammatory response syndrome model assessed as survival rate pretreated with compound at 5 mg/kg, IG administered as single dose followed by mTNFalpha injection and measured over 60 hrs; assay type: functional
[7] = molecular target: T3, Mixed lineage kinase domain-like protein (Homo sapiens) (UniProt Q8NB16); experiment: Inhibition of MLKL phosphorylation in TSZ-induced human HT-29 cells at 2 to 4 nM pretreated with compound followed by TSZ stimulation and measured after 6 hrs by immunoblotting analysis; assay type: cell-based; settings: dose 2-4 nM
T3 sequence (whole entry): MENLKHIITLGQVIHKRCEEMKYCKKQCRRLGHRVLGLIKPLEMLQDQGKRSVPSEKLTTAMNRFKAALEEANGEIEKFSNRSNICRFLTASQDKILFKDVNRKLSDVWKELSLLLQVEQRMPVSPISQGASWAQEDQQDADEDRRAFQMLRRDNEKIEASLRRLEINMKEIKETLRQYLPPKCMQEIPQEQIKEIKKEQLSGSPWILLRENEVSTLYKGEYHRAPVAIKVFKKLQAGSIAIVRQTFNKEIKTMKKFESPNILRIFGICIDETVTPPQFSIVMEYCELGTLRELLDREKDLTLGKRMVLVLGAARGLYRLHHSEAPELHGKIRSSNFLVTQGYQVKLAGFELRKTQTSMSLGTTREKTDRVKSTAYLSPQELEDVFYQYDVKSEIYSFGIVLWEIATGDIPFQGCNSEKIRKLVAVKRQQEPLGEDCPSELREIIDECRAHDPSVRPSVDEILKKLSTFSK

[8] = molecular target: Receptor-interacting serine/threonine-protein kinase 3 (Homo sapiens) (UniProt Q9Y572); experiment: Inhibition of RIPK3 phosphorylation in TSZ-induced human HT-29 cells at 2 to 4 nM pretreated with compound followed by TSZ stimulation and measured after 6 hrs by immunoblotting analysis; assay type: cell-based; settings: dose 2-4 nM
HT-29 [9] = experiment: Anti-necroptic activity in human HT-29 cells assessed as inhibition of TSZ induced necroptosis measured after 12 hrs by celltiter-glo luminescent cell viability assay; assay type: functional, cell-based; settings: dose 0.195-200 nM, DDE = dose-dependent effect
Mus musculus [10] = experiment: Anti-necroptic activity against mTNFalpha-induced systemic inflammatory response syndrome C57BL/6J mouse model assessed as protection of body temperature pretreated with compound at 5 to 15 mg/kg, IG administered as single dose followed by mTNFalpha injection measured after 2 to 3 hrs; assay type: functional, organism-based; settings: dose 5-15 mg/kg, time 2-3 hrs
Mus musculus [11] = experiment: Anti-necroptic activity against mTNFalpha induced C57BL/6J mouse systemic inflammatory response syndrome model assessed as survival rate pretreated with compound at 15 mg/kg, IG administered as single dose followed by mTNFalpha injection and measured over 60 hrs; assay type: functional
HT-29 [12] = experiment: Anti-necroptic activity in human HT-29 cells assessed as inhibition of TCZ induced necroptosis measured after 16 hrs by celltiter-glo luminescent cell viability assay; assay type: functional, cell-based; settings: dose 0.781-200 nM, DDE = dose-dependent effect
Mus musculus [13] = experiment: Anti-necroptic activity against mTNFalpha induced C57BL/6J mouse systemic inflammatory response syndrome model assessed as survival rate pretreated with compound at 10 mg/kg, IG administered as single dose followed by mTNFalpha injection and measured over 60 hrs; assay type: functional
[14] = molecular target: T3, Mixed lineage kinase domain-like protein (Homo sapiens); experiment: Inhibition of downstream MLKL phosphorylation in TSZ-induced human HT-29 cells at 10 nM pretreated with compound followed by TSZ stimulation and measured after 2 to 6 hrs by immunoblotting analysis; assay type: cell-based; settings: time 2-6 hrs
[15] = molecular target: T2, Receptor-interacting serine/threonine-protein kinase 1 (Homo sapiens); experiment: Inhibition of RIPK1 phosphorylation in TSZ-induced human HT-29 cells at 10 nM pretreated with compound followed by TSZ stimulation and measured after 2 to 6 hrs by immunoblotting analysis; assay type: cell-based; settings: time 2-6 hrs
HT-29 [16] = experiment: Inhibition of RIPK1-RIPK3-MLKL pathway in TSZ induced human HT-29 cells assessed as reduction in necrosome formation at 10 nM measured after 6 hrs by Western blot analysis; assay type: cell-based
[17] = molecular target: T3, Mixed lineage kinase domain-like protein (Homo sapiens); experiment: Inhibition of MLKL phosphorylation in TSZ-induced human HT-29 cells pretreated with compound followed by TSZ stimulation and measured after 6 hrs by immunoblotting analysis; assay type: cell-based; settings: dose 0.5-20 nM, DDE = dose-dependent effect
[18] = molecular target: Receptor-interacting serine/threonine-protein kinase 3 (Homo sapiens) (UniProt Q9Y572); experiment: Inhibition of RIPK3 phosphorylation in TSZ-induced human HT-29 cells at 10 nM pretreated with compound followed by TSZ stimulation and measured after 2 to 6 hrs by immunoblotting analysis; assay type: cell-based; settings: time 2-6 hrs
[19] = molecular target: Receptor-interacting serine/threonine-protein kinase 3 (Homo sapiens) (UniProt Q9Y572); experiment: Inhibition of RIPK3 phosphorylation in TSZ-induced human HT-29 cells pretreated with compound followed by TSZ stimulation and measured after 6 hrs by immunoblotting analysis; assay type: cell-based; settings: dose 0.5-20 nM, DDE = dose-dependent effect
U-937 = experiment: Anti-necroptic activity in human U-937 cells assessed as inhibition of TSZ induced necroptosis pretreated with compound followed by TSZ addition ans measured after 12 hrs by celltiter-glo luminescent cell viability assay; assay type: functional, cell-based; settings: dose 0.312-200 nM, DDE = dose-dependent effect
L929 = experiment: Anti-necroptic activity in mouse L929 cells assessed as inhibition of TZ induced necroptosis pretreated with compound followed by TZ addition and measured after 12 hrs by celltiter-glo luminescent cell viability assay; assay type: functional, cell-based; settings: dose 0.078-10 µM, DDE = dose-dependent effect

Sequence of Receptor-interacting serine/threonine-protein kinase 3 (Homo sapiens) (Q9Y572 whole entry, looked up): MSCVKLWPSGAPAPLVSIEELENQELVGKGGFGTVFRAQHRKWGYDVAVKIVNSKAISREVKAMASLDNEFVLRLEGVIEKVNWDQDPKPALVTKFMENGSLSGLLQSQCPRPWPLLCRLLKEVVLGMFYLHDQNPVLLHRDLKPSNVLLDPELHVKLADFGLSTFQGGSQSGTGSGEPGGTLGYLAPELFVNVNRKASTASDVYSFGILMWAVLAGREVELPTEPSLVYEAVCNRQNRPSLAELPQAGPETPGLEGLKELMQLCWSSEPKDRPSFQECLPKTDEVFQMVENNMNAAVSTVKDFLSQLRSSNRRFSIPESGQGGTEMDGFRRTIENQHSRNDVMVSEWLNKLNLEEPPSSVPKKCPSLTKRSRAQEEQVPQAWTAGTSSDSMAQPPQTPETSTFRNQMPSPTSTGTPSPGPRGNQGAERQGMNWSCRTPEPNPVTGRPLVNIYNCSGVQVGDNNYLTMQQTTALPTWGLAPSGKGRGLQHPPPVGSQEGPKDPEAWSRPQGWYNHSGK

Structure (SMILES) | CC50 [1] [nM] | EC50 (HT-29 [2]) [nM] | also measured
CN1C(=S)[C@@H](NC(=O)c2nc(Cc3ccccc3)n(C3CCC3)n2)COc2ccccc21 | > 100000 | 181 | Kd [3]: 301 nM
CN1C(=S)[C@@H](NC(=O)c2nc(Cc3ccccc3)n(C3CCNC3)n2)COc2ccccc21 (some centres not stated) | > 100000 | 1070 | 
CN1C(=S)[C@@H](NC(=O)c2nc(Cc3ccccc3)n(C3CCOC3)n2)COc2ccccc21 (some centres not stated) | > 100000 | 1580 | Kd [3]: 272 nM
CN1C(=S)[C@@H](NC(=O)c2nc(Cc3ccccc3)n(CCCC#N)n2)COc2ccccc21 | > 100000 | 2400 | 
CN1C(=S)[C@@H](NC(=O)c2nc(Cc3ccccc3)n(Cc3ccccc3)n2)COc2ccccc21 | > 100000 | 414 | 
CC(C)Cn1nc(C(=O)N[C@H]2COc3ccccc3N(C)C2=S)nc1Cc1ccccc1 | > 100000 | 1230 | 
CN1C(=S)[C@@H](NC(=O)c2nc(Cc3ccccc3)n(CCCF)n2)COc2ccccc21 | > 100000 | 4760 | 
CCn1nc(C(=O)N[C@H]2COc3ccccc3N(C)C2=S)nc1Cc1ccccc1 | > 100000 | 17 | Kd [3]: 79 nM
CN1C(=S)[C@@H](NC(=O)c2nc(Cc3ccccc3)n(C3CCNCC3)n2)COc2ccccc21 | > 100000 | 1000 | 
CCCCCn1nc(C(=O)N[C@H]2COc3ccccc3N(C)C2=S)nc1Cc1ccccc1 | > 100000 | 805 | 
Cc1cnc(-n2nc(C(=O)N[C@H]3COc4ccccc4N(C)C3=S)nc2Cc2ccccc2)nc1 | > 100000 | 1950 | 
CN1C(=S)[C@@H](NC(=O)c2nc(Cc3ccccc3)n(C3CCN(C(=O)OC(C)(C)C)CC3)n2)COc2ccccc21 | > 100000 | > 10000 | 
CN1C(=S)[C@@H](NC(=O)c2nc(Cc3ccccc3)n(C3CCOCC3)n2)COc2ccccc21 | > 100000 | 2260 | 
CN1C(=S)[C@@H](NC(=O)c2nc(Cc3ccccc3)n(C3CCCCCC3)n2)COc2ccccc21 | > 100000 | 5520 | 
CN1C(=O)[C@@H](NC(=O)c2nnc(Cc3ccccc3)[nH]2)COc2ccccc21 [GSK2982772] | > 50000 |  | 
CN1C(=S)[C@@H](NC(=O)c2nc(Cc3ccccc3)n(CCCCC#N)n2)COc2ccccc21 | > 100000 | 2680 | 
CN1C(=S)[C@@H](NC(=O)c2nc(Cc3ccccc3)n(C)n2)COc2ccccc21 | > 100000 | 2.5 | inhibition [4]: 100%; inhibition [5]: Dde; Activity (Mus musculus [6]): 70%; inhibition [7]: 100%; inhibition [8]: 100%; Activity (HT-29 [9]): Dde; Activity (Mus musculus [10]): Active; Activity (Mus musculus [11]): 100%; Activity (HT-29 [12]): Dde; Kd [3]: 31 nM; Activity (Mus musculus [13]): 100%; inhibition [14]: Active; inhibition [15]: 100%; inhibition (HT-29 [16]): Active; inhibition [17]: Dde; inhibition [18]: 100%; inhibition [19]: Dde; Activity (U-937): Dde; Activity (L929): Dde
CC(C)n1nc(C(=O)N[C@H]2COc3ccccc3N(C)C2=S)nc1Cc1ccccc1 | > 100000 | 360 | 
